Data published in patent US20090068258A1, “Caveolin-mimetic peptide for prevention and treatment of pulmonary hypertension and right ventricular hypertrophy” (priority 2007, published 2009).
Residues, ends and D or L forms follow the SMILES beside them. *: point of attachment. Biotin = O=C1N[C@H]2[C@H](CS[C@H]2CCCCC(=O)*)N1

How the values were obtained:
rats with MCT-induced PH = assay: Hemodynamic and morphometric variables in rats with MCT-induced PH; format: in vivo, Sprague-Dawley rats; conditions: MCT 60 mg/kg ip rats, peptide 2.5 mg/kg/d ip for 2 weeks; for RV/LV+septum weight ratio: Control rats 25.3±0.5, MCT rats 31.1±0.6; for RV systolic pressures: Control rats 26.0±0.9, MCT rats 40.2±1.5; for BW (body weight) / CVP (central venous pressure) / Dry lung weight/BW / Dry/wet lung weight / HR (heart rate) / LV(+)dP/dt / LV(−)dP/dt / LV/BW / LVEDP (LV-end diastolic pressure) / MAP (mean arterial pressure) / RV(+)dP/dt / RV(−)dP/dt / RV/BW / RVEDP (RV-end diastolic pressure) / Wet lung weight/BW: mean±S.E.M.
Experimental: (§1) Male Sprague-Dawley rats (Charles River, Wilmington, Mass.) weighing between 250-300 g received a single intraperitoneal (ip) injection of either 0.5 ml 0.9% NaCl or 0.5 ml 60 mg/kg MCT. Thirty minutes later, rats were randomly assigned to receive a daily ip injection of either 0.5 ml 0.9% NaCl, 0.5 ml AP (2.5 mg/kg/d) or 0.5 ml AP-Cav (2.5 mg/kg/d) for 2 weeks.
(§2) At two weeks, rats were anesthetized with xylazine (10 mg/kg)-ketamine (50 mg/kg) followed by 2000 U heparin (Sigma-Aldrich). The right jugular vein and carotid artery were then isolated and incised, and millar catheters (SPR-249, Millar Instruments, Houston, Tex.) were advanced into the right and left ventricles (RV and LV) for hemodynamic measurements. The RV and LV pressures were recorded with the Ponemah P3-Data acquisition system (LDS Test and Measurement, Middleton, Wis.).
(§3) Afterwards, the lower lobe of the right lung and the heart were dissected and weighed to respectively determine pulmonary edema and RV hypertrophy, as previously described^11. The remaining lobes of the right lung were submerged in liquid nitrogen and frozen at −80° C. The left pulmonary artery was then cannulated and perfused with 4% paraformaldehyde (PFA) for 2 min. This was followed by perfusion of the airways with 4% PFA for 2 min. The left lung was then immersed in 4% PFA for 24 hours.
(§4) Statistical Analysis. Hemodynamic and morphometric variables as well as the mean gray value of each western blot are expressed as mean±S.E.M. Differences between the 5 groups were evaluated by ANOVA, followed by Tukey's multiple-group comparisons test. Statistical significance was assumed at p<0.05.

Cav-1 [1] = assay: Immunoblot analysis of lung Cav-1 protein levels in MCT rats; format: in vivo, Sprague-Dawley rats
Experimental: as §1
(§5) Immunoblot Analysis. Lung samples from Control (n=17), Control+AP-Cav (n=10), MCT (n=25), MCT+AP (n=19), and MCT+AP-Cav (n=24) groups were homogenized in a RIPA lysis buffer containing protease and phosphatase inhibitors. Proteins were then separated by SDS-PAGE (12% acrylamide) and transferred to nitrocellulose membranes. The membranes were placed in blocking solution for 30 min. Afterwards, the membranes were washed and incubated with a given primary antibody for 1 hour (Cav-1, -2 and β-actin) or 3 hours (eNOS, STAT3, PY-STAT3, cyclin D1, and cyclin D3). […] Western blots for Cav-1, Cav-2, eNOS, PY-STAT3, cyclin D1 and cyclin D3 were subsequently quantitated using the NIH Image J software (using the mean gray value for each band).
(§6) Statistical Analysis. Hemodynamic and morphometric variables as well as the mean gray value of each western blot are expressed as mean±S.E.M. Differences between the 5 groups were evaluated by ANOVA, followed by Tukey's multiple-group comparisons test. […]

Cav-2 [2] = assay: Immunoblot analysis of lung Cav-2 protein levels in MCT rats; format: in vivo, Sprague-Dawley rats
Experimental: as §1, §5, §6

PY-STAT3 = assay: Immunoblot analysis of lung PY-STAT3 in MCT rats; format: in vivo, Sprague-Dawley rats
Experimental: as §1, §5, §6

cyclin D1 = assay: Immunoblot analysis of lung cyclin D1 in MCT rats; format: in vivo, Sprague-Dawley rats
Experimental: as §1, §5, §6

cyclin D3 = assay: Immunoblot analysis of lung cyclin D3 in MCT rats; format: in vivo, Sprague-Dawley rats
Experimental: as §1, §5, §6

Cav-1 [3] = assay: Dual-label immunofluorescence analysis of Cav-1 in pulmonary arteries of MCT rats; format: in vivo, Sprague-Dawley rats
Experimental: as §1
(§7) Immunofluorescence Analysis. As mentioned above, the left lung of Control (n=17), Control+AP-Cav (n=10), MCT (n=25), MCT+AP (n=19), and MCT+AP-Cav (n=24) rats was dissected and perfused-fixed. Transverse sections were obtained and embedded with paraffin. Sections of 10 μm were cut and stained with hematoxylin and eosin (H&E).
(§8) Paraffin from 10 μm-thick sections was removed by immersion in xylene. These sections were then rehydrated with graded alcohol to water and blocked overnight. The sections were subsequently incubated with a given primary antibody for three hours. FITC- and TRITC-conjugated secondary antibodies were then added to the sections after a 15 min wash in PBS. After 1 hr of incubation with the secondary antibodies, the sections were washed in PBS and mounted using Prolong Gold antifade reagent (Molecular Probes, Carlsbad, Calif.).

Cav-2 [4] = assay: Dual-label immunofluorescence analysis of Cav-2 in pulmonary arteries of MCT rats; format: in vivo, Sprague-Dawley rats
Experimental: as §1, §7, §8

[5] = test system: pulmonary arteries of MCT rats; assay: Lung vascular morphometry (percent medial wall thickness) in MCT rats; format: in vivo, Sprague-Dawley rats
Experimental: as §1
(§9) Lung Vascular Morphometry. H&E sections of the left lung (n=10 for each groups) were microscopically assessed for the medial wall thickness of pulmonary arteries. Measurements of the luminal diameter and the medial thickness on either side were obtained using the Image J software. Measurements were made on 30 muscular arteries (<50 μm, 51-100 μm, and 100-150 μm of external diameter) per lung section. The medial wall thickness was then related to the external diameter and expressed as percent wall thickness, as previously described^20.
as §4

Control rats = assay: Hemodynamic and morphometric variables in Control rats (0.9% NaCl instead of MCT); format: in vivo, Sprague-Dawley rats
Experimental: as §1, §2, §3, §4

[6] = test system: pulmonary arteries of Control rats; assay: Lung vascular morphometry (percent medial wall thickness) in Control rats; format: in vivo, Sprague-Dawley rats; conditions: data not shown
Experimental: as §1, §9, §4

mice = conditions: in vivo delivery, previous reports (refs 17;18); cited from earlier work
[7] = Control rats (no MCT), peptide 2.5 mg/kg/d ip for 2 weeks, mean±S.E.M.

## CC[C@H](C)[C@H](NC(=O)[C@H](CCCCN)NC(=O)[C@@H]1CCCN1C(=O)[C@H](CCC(N)=O)NC(=O)[C@H](CCCNC(=N)N)NC(=O)CCCC[C@@H]1SC[C@@H]2NC(=O)N[C@@H]21)C(=O)N[C@@H](Cc1c[nH]c2ccccc12)C(=O)N[C@@H](Cc1ccccc1)C(=O)N1CCC[C@H]1C(=O)N[C@@H](CC(N)=O)C(=O)N[C@@H](CCCNC(=N)N)C(=O)N[C@@H](CCCNC(=N)N)C(=O)N[C@@H](CCCCN)C(=O)N1CCC[C@H]1C(=O)N[C@@H](Cc1c[nH]c2ccccc12)C(=O)N[C@@H](CCCCN)C(=O)N[C@@H](CCCCN)C(=O)O [AP, (biotin)-RQPKIWFPNRRKPWKK (SEQ ID NO:1)—(OH)] (Biotin-RQPKIWFPNRRKPWKK-OH)
Rats with MCT-induced PH
  RV/LV+septum weight ratio: 30.6±0.6%
  RV systolic pressures: 39.6±1.5 mmHg
  BW (body weight): 335 ± 7 g
  CVP (central venous pressure): 5.1 ± 0.3 mmHg
  Dry lung weight/BW: 0.033 ± 0.001 %
  Dry/wet lung weight: 19.7 ± 0.4%
  HR (heart rate): 274 ± 12 beats/min
  LV(+)dP/dt: 6268 ± 339 mmHg/s
  LV(−)dP/dt: 4319 ± 286 mmHg/s
  LV/BW: 0.200 ± 0.004%
  LVEDP (LV-end diastolic pressure): 2.7 ± 0.3 mmHg
  MAP (mean arterial pressure): 85.3 ± 4.4 mmHg
  RV(+)dP/dt: 1931 ± 78 mmHg/s
  RV(−)dP/dt: 1395 ± 72 mmHg/s
  RV/BW: 0.061 ± 0.002 %
  RVEDP (RV-end diastolic pressure): 5.1 ± 0.3 mmHg
  Wet lung weight/BW: 0.170 ± 0.007 %
Cav-1 [1]; vs Control rats
  decrease of Cav-1 protein levels in the lungs: ~3 fold
Cav-2 [2]; vs Control rats
  decrease of Cav-2 protein levels in the lungs: ~2 fold
PY-STAT3; vs Control rats
  increased levels of PY-STAT3 in the lungs: ~5 fold
Cyclin D1; vs Control rats
  increase in cyclin D1 protein levels in the lungs: ~4 fold
Cyclin D3; vs Control rats
  increase in cyclin D3 protein levels in the lungs: ~4 fold
Cav-1 [3]
  Cav-1 expression in pulmonary arteries: marked reductions
Cav-2 [4]
  Cav-2 expression in pulmonary arteries: marked reductions
[5]; arteries <50 μm, 51-100 μm, 100-150 μm, vs Control rats
  increased percent medial wall thickness of pulmonary arteries: 2-3 fold

## (biotin)-RQPKTWFPNRRKPWKK-DGIWKASFTTFTVTKYWFYR (SEQ ID NO:10)—(OH) [AP-Cav]
Rats with MCT-induced PH
  RV/LV+septum weight ratio: 24.6±0.5%
  RV systolic pressures: 30.1±1.3 mmHg
  BW (body weight): 371 ± 9 g
  CVP (central venous pressure): 3.2 ± 0.2 mmHg
  Dry lung weight/BW: 0.028 ± 0.001 %
  Dry/wet lung weight: 20.7 ± 0.3%
  HR (heart rate): 261 ± 12 beats/min
  LV(+)dP/dt: 5766 ± 335 mmHg/s
  LV(−)dP/dt: 3891 ± 309 mmHg/s
  LV/BW: 0.200 ± 0.003%
  LVEDP (LV-end diastolic pressure): 2.7 ± 0.3 mmHg
  MAP (mean arterial pressure): 82.6 ± 2.9 mmHg
  RV(+)dP/dt: 1489 ± 18 mmHg/s
  RV(−)dP/dt: 1107 ± 61 mmHg/s
  RV/BW: 0.049 ± 0.001 %
  RVEDP (RV-end diastolic pressure): 3.0 ± 0.2 mmHg
  Wet lung weight/BW: 0.132 ± 0.004 %
Control rats; [7]
  BW (body weight): 407 ± 12 g
  CVP (central venous pressure): 3.1 ± 0.1 mmHg
  Dry lung weight/BW: 0.019 ± 0.000%
  Dry/wet lung weight: 20.8 ± 0.1%
  HR (heart rate): 270 ± 6 beats/min
  LV(+)dP/dt: 6216 ± 446 mmHg/s
  LV(−)dP/dt: 4614 ± 320 mmHg/s
  LV/BW: 0.194 ± 0.005%
  LVEDP (LV-end diastolic pressure): 3.0 ± 0.3 mmHg
  MAP (mean arterial pressure): 79.4 ± 3.4 mmHg
  RV(+)dP/dt: 1435 ± 60 mmHg/s
  RV(−)dP/dt: 988 ± 46 mmHg/s
  RV/BW: 0.050 ± 0.001%
  RVEDP (RV-end diastolic pressure): 2.8 ± 0.2 mmHg
  Wet lung weight/BW: 0.091 ± 0.001%
Control rats; Control rats, compared to Control group receiving 0.9% NaCl alone
  effect on hemodynamic and morphometric variables: did not affect
Cav-1 [1]; 2.5 mg/kg/d ip for 2 weeks
  pulmonary Cav-1 protein levels (effect in words): significantly prevented the reduction
Cav-2 [2]; 2.5 mg/kg/d ip for 2 weeks
  pulmonary Cav-2 protein levels (effect in words): significantly prevented the reduction
PY-STAT3; 2.5 mg/kg/d ip for 2 weeks
  STAT3 signaling cascade (PY-STAT3) in the lungs (effect in words): prevented the hyper-activation
Cyclin D1; 2.5 mg/kg/d ip for 2 weeks
  pulmonary cyclin D1 expression (effect in words): prevented the upregulation
Cyclin D3; 2.5 mg/kg/d ip for 2 weeks
  pulmonary cyclin D3 expression (effect in words): prevented the upregulation
Cav-1 [3]
  Cav-1 expression in pulmonary arteries: prevented
Cav-2 [4]
  Cav-2 expression in pulmonary arteries: prevented
[5]; 2.5 mg/kg/d ip for 2 weeks
  percent medial wall thickness of pulmonary arteries (effect in words): significantly reduced
[6]
  percent medial wall thickness of pulmonary arteries (effect in words): had no effect
mice
  systemic blood pressure, blood flow, and heart rate: had no effect
